Laboratory results reported in PubChem BioAssay (NCI).
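Tested at 5 concentrations; 48 h exposure; 96-well plates; endpoints linearly interpolated, else capped at highest concentration. Definition used: TGI = concentration required for complete inhibition of growth.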

Columns and labels:
Assay in all cases: growth of human tumour cells (NCI), 48 h
KM12 colon = tested on: KM12 colon
CCRF-CEM leukemia = tested on: CCRF-CEM leukemia
CAKI-1 renal = tested on: CAKI-1 renal
COLO 205 colon = tested on: COLO 205 colon
A498 renal = tested on: A498 renal
HCT-15 colon = tested on: HCT-15 colon
ACHN renal = tested on: ACHN renal
MCF7 breast = tested on: MCF7 breast
MALME-3M melanoma = tested on: MALME-3M melanoma
UACC-257 melanoma = tested on: UACC-257 melanoma

Row | SMILES | TGI (KM12 colon) [µM] | TGI (CCRF-CEM leukemia) [µM] | TGI (CAKI-1 renal) [µM] | TGI (COLO 205 colon) [µM] | TGI (A498 renal) [µM] | TGI (HCT-15 colon) [µM] | TGI (ACHN renal) [µM] | TGI (MCF7 breast) [µM] | TGI (MALME-3M melanoma) [µM] | TGI (UACC-257 melanoma) [µM]
1 | CC1(C)N=C(C(N)=O)c2ncn(N)c2N1 | > 100 | > 100 | > 100 | > 100 | > 100 | > 100 | > 100 | > 100 | > 100 | > 100
2 | CCN(CC)CC1CCCCN1CC(=O)N1c2ccccc2NC(=O)CC1C (stereo not drawn) | > 100 | > 100 | > 100 | > 100 | > 100 | > 100 | > 100 | > 100 | > 100 | > 100
3 | NC(N)=N/N=C/c1nc2n(c1[N+](=O)[O-])CCS2 | > 100 | – | > 100 | 27.4 | > 100 | > 100 | > 100 | > 100 | 30.8 | 44.6
4 | Cn1c(=O)c(C(=O)Nc2nc(C34CC5CC(CC(C5)C3)C4)cs2)c(O)c2ccccc21 | > 100 | > 100 | > 100 | > 100 | > 100 | > 100 | > 100 | > 100 | > 100 | > 100
5 | CC(C)/C(Cl)=N\OC(=O)Nc1ccccc1F | 40.3 | 3.44 | 38.3 | 4.2 | 28.3 | 31.3 | 24.9 | 16 | 8.72 | 33.2
6 | COC(=O)c1c(O)ccc2c1c1c(n2Cc2ccccc2Cl)C(=O)c2ccccc2C1=O | 24.1 | 43.6 | 27.4 | 15.8 | 31.3 | 31.8 | 36.7 | 32.4 | 31.4 | 32.8
7 | COC(=O)C1C/C(=C/N(C)C)C(=S)N1 (stereo not drawn) | > 100 | > 100 | > 100 | > 100 | > 100 | > 100 | > 100 | > 100 | > 100 | > 100
8 | CCCSc1ccc2[nH]c(N3C(=O)/C(=C/c4ccco4)N=C3c3ccccc3)cc2c1 | > 50 | > 50 | > 50 | 32.8 | > 50 | > 50 | > 50 | > 50 | > 50 | > 50
9 | Nn1c(COc2cccc(OCc3n[nH]c(=S)n3N)c2)n[nH]c1=S | > 100 | > 100 | > 100 | > 100 | > 100 | > 100 | > 100 | > 100 | > 100 | > 100
10 | O=C(c1ccccc1)N1CCN(C(=S)N(C(=O)c2ccccc2)c2ccccc2)C1=S | 20.5 | > 25.8 | 7.5 | 13.2 | 13.4 | 7.76 | 7.2 | 10 | 19.1 | 22.4
11 | O=CN1CCN(C(=O)c2ccc(Cl)cc2Cl)C1=S | > 100 | > 100 | > 100 | > 100 | > 100 | > 100 | > 100 | > 100 | > 100 | > 100
12 | S=C(NC1=NCC(CN2CCN(c3ccccc3)CC2)O1)Nc1ccccc1 (stereo not drawn) | > 100 | > 100 | > 100 | > 100 | > 100 | > 100 | > 100 | > 100 | > 100 | > 100
13 | COC(=O)CCC(=O)NC1=C(NCc2ccccc2)C(=O)c2ccccc2C1=O | > 100 | > 100 | 72.8 | 76.1 | > 100 | 51.5 | > 100 | 58.2 | – | 34.1
14 | CN(CCn1cnc2c1c(=O)n(C)c(=O)n2C)C1CCCCC1 | > 100 | > 100 | > 100 | > 100 | > 100 | > 100 | > 100 | > 100 | > 100 | > 100
15 | O=C(/C=C/c1ccc(O)c(O)c1)OCCCc1ccccc1 | – | – | 47 | 27.1 | 30.4 | 26.4 | 21.2 | 26.8 | 25.4 | 63.4
16 | O=C(c1ccco1)N1CCCN(C(=O)c2ccco2)C1=S | > 100 | > 100 | > 100 | > 100 | > 100 | > 100 | > 100 | > 100 | > 100 | > 100
17 | COC(=O)C(Cc1c(C2Nc3ccccc3C2CC(NC(=O)CNC(C)=O)C(=O)OC)[nH]c2ccccc12)NC(=O)CNC(C)=O (stereo not drawn) | > 100 | > 100 | > 100 | > 100 | > 100 | > 100 | > 100 | > 100 | > 100 | > 100
18 | N/C(=N\S(=O)(=O)c1ccc(S(=O)(=O)c2ccccc2)s1)Nc1ccc(Cl)cc1 | > 100 | – | – | 39.4 | 34.7 | 35.1 | 71.4 | 35.6 | 47.9 | 29.1
19 | C1CCC2(CC1)O[C@@H]1[C@@H](O2)[C@@H](O[C@H]2O[C@@H]3COC4(CCCCC4)O[C@H]3[C@@H]3OC4(CCCCC4)O[C@@H]23)O[C@@H]2COC3(CCCCC3)O[C@@H]12 | > 100 | > 100 | > 100 | > 100 | > 100 | – | > 100 | > 100 | > 100 | > 100
20 | Nc1nc(Cl)c(N)c(NCC2(CO)CC(OCc3ccccc3)C2)n1 (stereo not drawn) | > 100 | > 100 | > 100 | > 100 | > 100 | > 100 | > 100 | > 100 | > 100 | > 100
21 | C[C@]12CC[C@H]3[C@@H](CC=C4C[C@@H](N5CCCC5)CC[C@@]43C)[C@@H]1C[C@H](N1CCOCC1)[C@@H]2O | > 100 | > 100 | > 100 | > 100 | > 100 | > 100 | > 100 | > 10 | > 100 | > 100
